Data: publication PMC8421360, “Spectroscopic glimpses of the transition state of ATP hydrolysis trapped in a bacterial DnaB helicase” (Nature Communications, 2021)

Molecular target: T1, HpDnaB (Helicobacter pylori, UniProt O25916)
T1 construct: gene dnaB; recombinant in E. coli BL21 Star (DE3), pACYC-duet1 (NdeI/XhoI); monomer 59 kDa; closed hexamer proposed with DNA, dodecamer in crystal 4ZC0
T1 sequence (O25916 1-488): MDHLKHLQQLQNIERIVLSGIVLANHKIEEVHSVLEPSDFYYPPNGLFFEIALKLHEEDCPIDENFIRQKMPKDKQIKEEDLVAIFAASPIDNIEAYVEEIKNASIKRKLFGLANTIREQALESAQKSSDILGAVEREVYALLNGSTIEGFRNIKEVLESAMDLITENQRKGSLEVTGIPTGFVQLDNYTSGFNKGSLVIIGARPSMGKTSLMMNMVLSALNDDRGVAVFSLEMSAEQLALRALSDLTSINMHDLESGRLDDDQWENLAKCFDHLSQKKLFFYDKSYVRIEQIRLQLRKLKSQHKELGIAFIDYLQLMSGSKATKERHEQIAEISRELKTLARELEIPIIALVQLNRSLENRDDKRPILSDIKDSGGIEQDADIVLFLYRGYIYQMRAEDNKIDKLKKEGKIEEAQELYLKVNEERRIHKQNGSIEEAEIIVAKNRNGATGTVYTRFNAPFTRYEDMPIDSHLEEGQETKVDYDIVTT
Test: proton-detected […],1H solid-state NMR (hPH, […] kHz MAS); Mn2+ EDNMR/ENDOR
Type: binding
Conditions: as ADP:AlF4- complex; Mg2+ and (dT)20 for hPH NMR, Mn2+ without DNA for EPR; pH 7.5; Walker A nucleotide site (S206, G208, K209, T210, S211)

## Nc1ncnc2c1ncn2[C@@H]1O[C@H](COP(=O)(O)OP(=O)(O)O)[C@@H](O)[C@H]1O [ADP]
  proton-detected 31P,1H solid-state NMR (hPH, 105 kHz MAS); Mn2+ EDNMR/ENDOR: spatial correlations between Pβ of ADP and S206, G208, K209 and T210
